Measured values taken from patent US12668591B2, “1,2,4-oxadiazole derivatives as histone deacetylase 6 inhibitors” (Oryzon Genomics, S.A., priority 2017, dated 2026).

What was measured:
HDAC6 [1] = target: T1, HDAC6 (Homo sapiens, UniProt Q9UBN7); experiment: In vitro cell-based assay: acetylation levels of Alpha-Tubulin by Western Blot in MOLP8 cells; parameters: endogenous in cells; host or cells: MOLP8; conditions: 18 h, acetyl-alpha-tubulin relative band intensity, ACY-1215 1 μM = 100%
T1 sequence (Q9UBN7 1-1215): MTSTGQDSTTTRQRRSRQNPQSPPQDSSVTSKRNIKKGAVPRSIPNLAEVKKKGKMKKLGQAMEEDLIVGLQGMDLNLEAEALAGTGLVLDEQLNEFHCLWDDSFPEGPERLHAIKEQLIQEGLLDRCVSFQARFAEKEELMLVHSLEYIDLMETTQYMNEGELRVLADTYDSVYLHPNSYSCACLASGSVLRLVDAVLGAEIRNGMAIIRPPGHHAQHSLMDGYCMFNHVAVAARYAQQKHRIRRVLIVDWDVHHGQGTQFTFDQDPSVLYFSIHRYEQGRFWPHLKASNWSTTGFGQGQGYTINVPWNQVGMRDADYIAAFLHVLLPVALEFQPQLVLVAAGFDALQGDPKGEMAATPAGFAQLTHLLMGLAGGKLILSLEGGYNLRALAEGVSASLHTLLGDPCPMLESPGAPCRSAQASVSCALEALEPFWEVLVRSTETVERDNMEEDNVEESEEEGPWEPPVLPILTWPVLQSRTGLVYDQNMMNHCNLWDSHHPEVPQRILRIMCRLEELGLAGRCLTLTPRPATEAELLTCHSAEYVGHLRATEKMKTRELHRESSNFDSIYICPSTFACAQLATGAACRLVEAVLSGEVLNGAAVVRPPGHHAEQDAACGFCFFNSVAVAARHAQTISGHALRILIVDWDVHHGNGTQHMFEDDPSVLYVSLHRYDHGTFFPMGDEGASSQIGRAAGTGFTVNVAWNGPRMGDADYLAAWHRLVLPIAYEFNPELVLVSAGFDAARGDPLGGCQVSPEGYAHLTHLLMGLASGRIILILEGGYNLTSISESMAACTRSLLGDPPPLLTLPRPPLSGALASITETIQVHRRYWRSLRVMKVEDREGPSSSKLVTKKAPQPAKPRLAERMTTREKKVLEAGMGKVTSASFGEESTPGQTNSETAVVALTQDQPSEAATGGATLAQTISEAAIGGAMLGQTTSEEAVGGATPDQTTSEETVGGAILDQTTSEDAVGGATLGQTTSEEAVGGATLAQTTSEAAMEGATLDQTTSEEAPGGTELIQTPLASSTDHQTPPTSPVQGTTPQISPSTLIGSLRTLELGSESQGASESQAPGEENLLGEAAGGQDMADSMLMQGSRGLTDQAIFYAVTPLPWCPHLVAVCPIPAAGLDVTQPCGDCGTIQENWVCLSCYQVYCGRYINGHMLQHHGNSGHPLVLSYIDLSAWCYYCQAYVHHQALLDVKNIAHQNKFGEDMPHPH
Experimental: In Vitro Cell-Based Assay
In order to determine the cellular activity of HDAC6 upon treatment with HDAC6 inhibitors, acetylation levels of Alpha-Tubulin (a HDAC6-specific substrate) were measured by Western Blot. For this, MOLP8 cells were seeded in 6-well plates at a cell density of 500.000 cells/well and treated with the selected compounds at 5 and 1 μM for 18 h at 37° C. and 5% CO2 in a humidified tissue culture incubator. Consecutively, cell pellets were collected and whole protein extracts prepared using RIPA buffer (SIGMA) supplemented with 1× protease inhibitors (cOmplete mini, Roche). Protein concentration was determined with Bradford's reagent (Bio-Rad) as per manufacturer's instructions, and 7 μg of total protein were loaded into pre-cast 10% NuPAGE Novex gels (Life Technologies). Gels were run in […] (Life Technologies) and proteins were transferred using the iBlot 2 Dry Blotting System (Life Technologies). Blots were subsequently rinsed in distilled water and stained with Ponceau S solution (SIGMA). Blots were then washed in distilled water to remove Ponceau excess and scanned with the Epson Perfection V600 Photo professional Scanner. After this, blots were de-stained and blocked in 5% milk/PBS-Tween 0.1% for 1 h at room temperature followed by incubation with anti-Acetyl-alpha Tubulin (SIGMA cat. #T7451, 1:10.000 dilution) and anti-Beta-actin (SIGMA, cat. #A5316, 1:2.000 dilution) primary antibodies in 5% milk/PBS-T 0.1%, overnight at 4° C. on a shaking platform. After incubation, blots were washed 3 times for 5 minutes each in PBS-Tween 0.5% and incubated with anti-mouse HRP-conjugated secondary antibody (Jackson Immuno Research, cat. #115-035-068) at 1:8.000 in 5% milk/PBS-Tween 0.1%, 1 h at room temperature on a shaking platform. After 3 washes of 5 minutes each with PBS-Tween 0.5% and 1 wash in PBS 1×, blots were developed with ECL Plus (GE Healthcare) and the chemiluminescent reaction imaged with the G:Box Chemi XRQ (Syngene) imaging system. WB and Ponceau images were analysed with ImageJ software, WB band intensities normalized by either total protein or Beta-actin content and made relative to ACY-1215 1 μM (equivalent to 100%). ACY-1215 is a HDAC6 inhibitor, and is also known as ricolinostat, with chemical name 2-(diphenylamino)-N-[7-(hydroxyamino)-7-oxoheptyl]-5-pyrimidinecarboxamide. Percentage of band intensities was classified as follows: […]

HDAC6 [2] = target: T1, HDAC6; experiment: HDAC6 enzyme inhibition assay (fluorimetric); type: biochemical; conditions: 1 μM compound; 3 h pre-incubation; recombinant full length HDAC6; read-out: HDAC6 % inh @ 1 μM
Experimental: HDAC6 and HDAC2 Enzyme Inhibition Assay
A fluorimetric assay was used for testing the activity of compounds of the invention against HDAC6 and HDAC2.
The compounds were dissolved in DMSO. Serial dilutions were prepared in DMSO and then diluted 1:10 in HDAC assay buffer (Tris-buffered solution, BPS Bioscience Inc. #50031). 5 μl of the compound dilution was added to a 50 μl reaction so that the final concentration of DMSO was 1%.
The compounds were pre-incubated in duplicate at RT for 3 hours in a mixture containing HDAC assay buffer, 5 μg BSA and recombinant HDAC enzyme (see table above). The enzymatic reactions were initiated by the addition of a fluorogenic, acetylated peptide substrate based on a histone protein (BPS Bioscience Inc. #50037) to a final concentration of 10 μM. The enzymatic reaction proceeded for 30 minutes at 37° C. Then, 50 μl of 2× HDAC Developer, which contains peptidase activity and Trichostatin A (BPS Bioscience Inc. #50030) was added and the plate was incubated at RT for an additional 15 minutes. Fluorescence intensity was measured at an excitation of 360 nm and an emission of 460 nm using a Tecan Infinite M1000 microplate reader.
Trichostatin A (TSA, Selleckchem #S1045) was used as reference inhibitor.
The fluorescent intensity data were analyzed using the computer software Graphpad Prism (GraphPad Software, San Diego, CA). 100% activity was defined as the fluorescent intensity (Ft) in the absence of the compound. 0% activity was defined as the fluorescent intensity (Fb) in the absence of the enzyme. The percent activity in the presence of each compound was calculated according to the following equation: % activity=(F−Fb)/(Ft−Fb), where F=the fluorescent intensity in the presence of the compound.

Compound | Cellular activity @1 uM (HDAC6 [1]) | Cellular activity @5 uM (HDAC6 [1]) | inhibition at 1 µM (HDAC6 [2])
CCCCn1ccc2cc(-c3cc(-c4noc(C(F)(F)F)n4)ccn3)ncc21 [Example 1, 3-(2-(1-Butyl-1H-pyrrolo[2,3-c]pyridin-5-yl)pyridin-4-yl)-5-(trifluoromethyl)-1,2,4-oxadiazole] | − (<50) | + (50-150) | 79%
FC(F)(F)c1nc(-c2ccnc(-c3cc4c(CN5CCCCC5)n[nH]c4cn3)c2)no1 [Example 1aa, 3-(2-(3-(Piperidin-1-ylmethyl)-1H-pyrazolo[3,4-c]pyridin-5-yl)pyridin-4-yl)-5-(trifluoromethyl)-1,2,4-oxadiazole] | + (50-150) | + (50-150) | 92%
COCCn1ncc2cc(-c3cc(-c4noc(C(F)(F)F)n4)ccn3)ncc21 [Example 1ay, 3-(2-(1-(2-Methoxyethyl)-1H-pyrazolo[3,4-c]pyridin-5-yl)pyridin-4-yl)-5-(trifluoromethyl)-1,2,4-oxadiazole] | − (<50) | + (50-150) | 
CCCCn1c(C(=O)N(C)C)cc2cc(-c3cc(-c4noc(C(F)(F)F)n4)ccn3)ncc21 [Example 1b, 1-Butyl-N,N-dimethyl-5-(4-(5-(trifluoromethyl)-1,2,4-oxadiazol-3-yl)pyridin-2-yl)-1H-pyrrolo[2,3-c]pyridine-2-carboxamide] | + (50-150) | ++ (150-300) | 84%
CCCCn1c(C(=O)NCC)cc2cc(-c3cc(-c4noc(C(F)(F)F)n4)ccn3)ncc21 [Example 1d, 1-Butyl-N-ethyl-5-(4-(5-(trifluoromethyl)-1,2,4-oxadiazol-3-yl)pyridin-2-yl)-1H-pyrrolo[2,3-c]pyridine-2-carboxamide] | + (50-150) | ++ (150-300) | 78%
CCCCN(C(=O)CCOC)c1ccc(-c2cc(-c3noc(C(F)(F)F)n3)ccn2)nc1 [Example 1i, N-Butyl-3-methoxy-N-(4′-(5-(trifluoromethyl)-1,2,4-oxadiazol-3-yl)-[2,2′-bipyridin]-5-yl)propanamide] | − (<50) | + (50-150) | 
CN(CCCN1CCC(F)(F)CC1)c1ccc(-c2cc(-c3noc(C(F)(F)F)n3)ccn2)nc1 [Example 1l, N-(3-(4,4-Difluoropiperidin-1-yl)propyl)-N-methyl-4′-(5-(trifluoromethyl)-1,2,4-oxadiazol-3-yl)-[2,2′-bipyridin]-5-amine] | − (<50) | + (50-150) | 
CCN(CC)CCCN(C)c1ccc(-c2cc(-c3noc(C(F)(F)F)n3)ccn2)nc1 [Example 1n, N^1,N^1-Diethyl-N^3-methyl-N^3-(4′-(5-(trifluoromethyl)-1,2,4-oxadiazol-3-yl)-2,2′-bipyridin-5-yl)propane-1,3-diamine] | − (<50) | + (50-150) | 
CCN(CCCOc1ccc(-c2cc(-c3noc(C(F)(F)F)n3)ccn2)nc1)CCc1ccccc1 [Example 1p, N-Ethyl-N-phenethyl-3-((4′-(5-(trifluoromethyl)-1,2,4-oxadiazol-3-yl)-[2,2′-bipyridin]-5-yl)oxy)propan-1-amine] | − (<50) | ++ (150-300) | 
FC1(F)CCN(CCOc2ccnc(-c3cc(-c4noc(C(F)(F)F)n4)ccn3)c2)CC1 [Example 1s, 3-(4′-(2-(4,4-Difluoropiperidin-1-yl)ethoxy)-[2,2′-bipyridin]-4-yl)-5-(trifluoromethyl)-1,2,4-oxadiazole] | − (<50) | + (50-150) | 
CNCCCOc1ccc(-c2cc(-c3noc(C(F)(F)F)n3)ccn2)nc1 [Example 2, N-Methyl-3-((4′-(5-(trifluoromethyl)-1,2,4-oxadiazol-3-yl)-[2,2′-bipyridin]-5-yl)oxy)propan-1-amine] | − (<50) | + (50-150) | 
FC(F)(F)c1nc(-c2ccnc(-n3ncc4cccnc43)c2)no1 [Example 6, 3-(2-(1H-Pyrazolo[3,4-b]pyridin-1-yl)pyridin-4-yl)-5-(trifluoromethyl)-1,2,4-oxadiazole] | + (50-150) | + (50-150) | 
CN(C)CCCOc1ccc(-c2cc(-c3noc(C(F)(F)F)n3)ccn2)nc1 [Example 7, N,N-Dimethyl-3-((4′-(5-(trifluoromethyl)-1,2,4-oxadiazol-3-yl)-[2,2′-bipyridin]-5-yl)oxy)propan-1-amine] | − (<50) | + (50-150) | 
Cn1nc(-c2cc(-c3noc(C(F)(F)F)n3)ccn2)c2ncccc21 [Example 7a, 3-(2-(1-Methyl-1H-pyrazolo[4,3-b]pyridin-3-yl)pyridin-4-yl)-5-(trifluoromethyl)-1,2,4-oxadiazole] | + (50-150) | ++ (150-300) | 
